Source: paper PMC3767384 (The Biochemical journal, 2012)

Tests used:
[1] = test system: primary bovine retinal endothelial cells (BREC); experiment: In vitro permeability assay, VEGF-induced, 70 kDa RITC-Dextran; type: cell-based; settings: siRNA transfection for 72 h, 50 ng/ml VEGF
[2] = test system: visual loss in diabetic retinopathy; settings: clinical trials; cited from earlier work
PKCβ = settings: oral administration; cited from earlier work

## 5’-GCAAUGAACACCAGGGAAA-3’ [PKCι Construct A]
[1]
  Effect on VEGF-induced increase in retinal endothelial permeability: prevented the VEGF-induced increase in retinal endothelial permeability

## CN(C)C[C@@H]1CCn2cc(c3ccccc32)C2=C(C(=O)NC2=O)c2cn(c3ccccc23)CCO1 [ruboxistaurin]
[2]
  Effect on visual loss: delays sustained moderate visual loss in diabetic retinopathy
PKCβ
  Effect on diabetes induced-endothelial proliferation and permeability: prevents these pathologic outcomes
